“And” between values parts separate entries of the source, which are not always exact repeats. Equal values may be shown once.
Tests used:
Parameters in all cases: scale not given: the % may be the effect or the level left
[1] = target: Activin receptor type-1 (Homo sapiens) (UniProt Q04771); assay: Inhibition of human ACVR1 assessed as percent of control at 2000 nM by KINOMEscan assay relative to control
[2] = target: Activin receptor type-1-like (Homo sapiens) (UniProt P37023); assay: Inhibition of human ACVRL1 assessed as percent of control at 2000 nM by KINOMEscan assay relative to control
[3] = target: Tyrosine-protein kinase Blk (Homo sapiens) (UniProt P51451); assay: Inhibition of human BLK assessed as percent of control at 2000 nM by KINOMEscan assay relative to control
[4] = target: Cyclin-dependent kinase 11A (Homo sapiens) (UniProt Q9UQ88); assay: Inhibition of human CDC2L2 assessed as percent of control at 2000 nM by KINOMEscan assay relative to control
[5] = target: Dual specificity protein kinase CLK4 (Homo sapiens) (UniProt Q9HAZ1); assay: Inhibition of human CLK4 assessed as percent of control at 2000 nM by KINOMEscan assay relative to control
[6] = tested on: Epidermal growth factor receptor (Homo sapiens), P00533 [UNDEFINED MUTATION]; assay: Inhibition of human EGFR L747-E749del/A750P double mutant assessed as percent of control at 2000 nM by KINOMEscan assay relative to control
[7] = target: Ephrin type-A receptor 4 (Homo sapiens) (UniProt P54764); assay: Inhibition of human EPHA4 assessed as percent of control at 2000 nM by KINOMEscan assay relative to control
[8] = target: Ephrin type-A receptor 5 (Homo sapiens) (UniProt P54756); assay: Inhibition of human EPHA5 assessed as percent of control at 2000 nM by KINOMEscan assay relative to control
[9] = target: Receptor tyrosine-protein kinase erbB-2 (Homo sapiens) (UniProt P04626); assay: Inhibition of human ERBB2 assessed as percent of control at 2000 nM by KINOMEscan assay relative to control
[10] = target: Tyrosine-protein kinase Fes/Fps (Homo sapiens) (UniProt P07332); assay: Inhibition of human FES assessed as percent of control at 2000 nM by KINOMEscan assay relative to control
[11] = target: Rhodopsin kinase GRK1 (Homo sapiens) (UniProt Q15835); assay: Inhibition of human GRK1 assessed as percent of control at 2000 nM by KINOMEscan assay relative to control
[12] = target: Homeodomain-interacting protein kinase 2 (Homo sapiens) (UniProt Q9H2X6); assay: Inhibition of human HIPK2 assessed as percent of control at 2000 nM by KINOMEscan assay relative to control
[13] = target: Homeodomain-interacting protein kinase 3 (Homo sapiens) (UniProt Q9H422); assay: Inhibition of human HIPK3 assessed as percent of control at 2000 nM by KINOMEscan assay relative to control
[14] = target: Serine/threonine-protein kinase ICK (Homo sapiens) (UniProt Q9UPZ9); assay: Inhibition of human ICK assessed as percent of control at 2000 nM by KINOMEscan assay relative to control
[15] = tested on: Mast/stem cell growth factor receptor Kit (Homo sapiens), P10721 [V559D]; assay: Inhibition of human KIT V559D mutant assessed as percent of control at 2000 nM by KINOMEscan assay relative to control
[16] = target: LIM domain kinase 2 (Homo sapiens) (UniProt P53671); assay: Inhibition of human LIMK2 assessed as percent of control at 2000 nM by KINOMEscan assay relative to control
[17] = target: Muscle, skeletal receptor tyrosine-protein kinase (Homo sapiens) (UniProt O15146); assay: Inhibition of human MUSK assessed as percent of control at 2000 nM by KINOMEscan assay relative to control
[18] = target: Serine/threonine-protein kinase PAK 1 (Homo sapiens) (UniProt Q13153); assay: Inhibition of human PAK1 assessed as percent of control at 2000 nM by KINOMEscan assay relative to control
[19] = target: Phosphatidylinositol 4-phosphate 3-kinase C2 domain-containing subunit beta (Homo sapiens) (UniProt O00750); assay: Inhibition of human PIK3C2B assessed as percent of control at 2000 nM by KINOMEscan assay relative to control
[20] = tested on: Phosphatidylinositol 4,5-bisphosphate 3-kinase catalytic subunit alpha isoform (Homo sapiens), P42336 [M1043I]; assay: Inhibition of human PIK3CA M1043I mutant assessed as percent of control at 2000 nM by KINOMEscan assay relative to control
[21] = target: Phosphatidylinositol 4-phosphate 5-kinase type-1 alpha (Homo sapiens) (UniProt Q99755); assay: Inhibition of human PIP5K1A assessed as percent of control at 2000 nM by KINOMEscan assay relative to control
[22] = target: Phosphatidylinositol 5-phosphate 4-kinase type-2 gamma (Homo sapiens) (UniProt Q8TBX8); assay: Inhibition of human PIP5K2C assessed as percent of control at 2000 nM by KINOMEscan assay relative to control
[23] = target: Protein kinase C iota type (Homo sapiens) (UniProt P41743); assay: Inhibition of human PRKCI assessed as percent of control at 2000 nM by KINOMEscan assay relative to control
[24] = target: RAF proto-oncogene serine/threonine-protein kinase (Homo sapiens) (UniProt P04049); assay: Inhibition of human RAF1 assessed as percent of control at 2000 nM by KINOMEscan assay relative to control
[25] = target: Rho-associated protein kinase 2 (Homo sapiens) (UniProt O75116); assay: Inhibition of human ROCK2 assessed as percent of control at 2000 nM by KINOMEscan assay relative to control
[26] = target: Ribosomal protein S6 kinase alpha-4 (Homo sapiens) (UniProt O75676); assay: Inhibition of human N-terminal RPS6KA4 kinase domain assessed as percent of control at 2000 nM by KINOMEscan assay relative to control
[27] = target: SRSF protein kinase 1 (Homo sapiens) (UniProt Q96SB4); assay: Inhibition of human SRPK1 assessed as percent of control at 2000 nM by KINOMEscan assay relative to control
[28] = target: Tyrosine-protein kinase receptor Tie-1 (Homo sapiens) (UniProt P35590); assay: Inhibition of human TIE1 assessed as percent of control at 2000 nM by KINOMEscan assay relative to control
[29] = target: Transient receptor potential cation channel subfamily M member 6 (Homo sapiens) (UniProt Q9BX84); assay: Inhibition of human TRPM6 assessed as percent of control at 2000 nM by KINOMEscan assay relative to control
[30] = target: Vascular endothelial growth factor receptor 2 (Homo sapiens) (UniProt P35968); assay: Inhibition of human VEGFR2 assessed as percent of control at 2000 nM by KINOMEscan assay relative to control
[31] = target: Wee1-like protein kinase 2 (Homo sapiens) (UniProt P0C1S8); assay: Inhibition of human WEE2 assessed as percent of control at 2000 nM by KINOMEscan assay relative to control

Sequence of RAF proto-oncogene serine/threonine-protein kinase (Homo sapiens) (P04049 whole entry): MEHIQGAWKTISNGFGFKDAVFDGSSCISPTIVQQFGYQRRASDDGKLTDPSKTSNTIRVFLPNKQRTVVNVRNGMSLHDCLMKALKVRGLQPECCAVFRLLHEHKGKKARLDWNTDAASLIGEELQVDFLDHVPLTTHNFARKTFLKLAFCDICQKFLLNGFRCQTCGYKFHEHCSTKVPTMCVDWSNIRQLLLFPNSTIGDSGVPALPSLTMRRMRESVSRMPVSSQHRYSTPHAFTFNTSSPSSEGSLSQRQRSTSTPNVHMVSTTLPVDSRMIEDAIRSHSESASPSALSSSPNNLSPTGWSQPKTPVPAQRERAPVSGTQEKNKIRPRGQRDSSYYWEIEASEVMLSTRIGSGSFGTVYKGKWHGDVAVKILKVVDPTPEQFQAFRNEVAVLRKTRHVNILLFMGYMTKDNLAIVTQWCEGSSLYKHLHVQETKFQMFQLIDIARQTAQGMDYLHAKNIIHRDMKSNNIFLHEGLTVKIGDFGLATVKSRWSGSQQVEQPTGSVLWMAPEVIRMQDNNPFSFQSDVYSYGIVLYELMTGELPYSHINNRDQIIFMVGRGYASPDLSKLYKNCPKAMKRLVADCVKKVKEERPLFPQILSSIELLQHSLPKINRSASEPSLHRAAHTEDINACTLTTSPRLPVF
Sequence of Tyrosine-protein kinase receptor Tie-1 (Homo sapiens) (P35590 whole entry): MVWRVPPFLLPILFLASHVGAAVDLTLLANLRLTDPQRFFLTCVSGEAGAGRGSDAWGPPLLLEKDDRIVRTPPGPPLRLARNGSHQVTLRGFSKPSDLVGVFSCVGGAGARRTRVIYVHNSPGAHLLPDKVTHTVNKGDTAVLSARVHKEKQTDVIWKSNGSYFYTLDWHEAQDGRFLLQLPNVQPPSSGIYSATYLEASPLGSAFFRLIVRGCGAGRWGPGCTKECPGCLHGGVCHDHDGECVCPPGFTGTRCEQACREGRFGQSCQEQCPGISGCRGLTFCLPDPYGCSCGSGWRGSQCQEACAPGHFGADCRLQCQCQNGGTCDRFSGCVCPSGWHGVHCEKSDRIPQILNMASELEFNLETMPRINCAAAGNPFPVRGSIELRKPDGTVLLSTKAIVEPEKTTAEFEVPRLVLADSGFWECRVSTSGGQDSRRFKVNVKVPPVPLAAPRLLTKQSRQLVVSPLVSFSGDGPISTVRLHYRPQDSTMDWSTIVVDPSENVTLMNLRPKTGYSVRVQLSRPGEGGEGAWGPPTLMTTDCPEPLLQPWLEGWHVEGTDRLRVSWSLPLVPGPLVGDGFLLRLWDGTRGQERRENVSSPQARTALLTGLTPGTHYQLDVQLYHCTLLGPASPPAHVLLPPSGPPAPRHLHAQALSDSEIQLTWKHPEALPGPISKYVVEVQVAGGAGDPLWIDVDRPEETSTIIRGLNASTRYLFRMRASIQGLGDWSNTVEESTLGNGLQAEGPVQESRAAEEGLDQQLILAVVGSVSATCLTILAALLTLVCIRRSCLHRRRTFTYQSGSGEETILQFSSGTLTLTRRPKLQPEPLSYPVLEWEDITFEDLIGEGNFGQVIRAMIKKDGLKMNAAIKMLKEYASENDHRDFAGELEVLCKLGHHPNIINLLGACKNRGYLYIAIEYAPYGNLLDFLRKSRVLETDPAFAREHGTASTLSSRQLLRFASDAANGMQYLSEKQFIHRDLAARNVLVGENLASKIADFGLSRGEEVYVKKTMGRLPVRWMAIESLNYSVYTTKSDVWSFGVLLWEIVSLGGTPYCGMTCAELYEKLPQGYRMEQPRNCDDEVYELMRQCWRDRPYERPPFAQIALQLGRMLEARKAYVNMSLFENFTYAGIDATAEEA
Sequence of Rhodopsin kinase GRK1 (Homo sapiens) (Q15835 whole entry): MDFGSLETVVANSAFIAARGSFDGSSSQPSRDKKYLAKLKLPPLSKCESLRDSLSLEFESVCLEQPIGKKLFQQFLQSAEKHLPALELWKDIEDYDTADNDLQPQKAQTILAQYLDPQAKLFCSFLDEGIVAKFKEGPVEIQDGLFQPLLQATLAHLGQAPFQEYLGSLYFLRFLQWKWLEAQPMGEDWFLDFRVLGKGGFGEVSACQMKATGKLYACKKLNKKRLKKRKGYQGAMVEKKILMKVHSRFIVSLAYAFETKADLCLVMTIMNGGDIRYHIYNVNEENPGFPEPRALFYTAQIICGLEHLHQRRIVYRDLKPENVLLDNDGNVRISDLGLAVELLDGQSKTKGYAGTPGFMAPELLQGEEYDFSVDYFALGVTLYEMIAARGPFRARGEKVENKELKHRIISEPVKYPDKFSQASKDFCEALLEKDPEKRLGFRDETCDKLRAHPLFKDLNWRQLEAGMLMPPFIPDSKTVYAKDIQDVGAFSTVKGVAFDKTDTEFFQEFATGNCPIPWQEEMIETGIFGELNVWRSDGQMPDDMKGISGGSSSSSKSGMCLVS
Sequence of SRSF protein kinase 1 (Homo sapiens) (Q96SB4 whole entry): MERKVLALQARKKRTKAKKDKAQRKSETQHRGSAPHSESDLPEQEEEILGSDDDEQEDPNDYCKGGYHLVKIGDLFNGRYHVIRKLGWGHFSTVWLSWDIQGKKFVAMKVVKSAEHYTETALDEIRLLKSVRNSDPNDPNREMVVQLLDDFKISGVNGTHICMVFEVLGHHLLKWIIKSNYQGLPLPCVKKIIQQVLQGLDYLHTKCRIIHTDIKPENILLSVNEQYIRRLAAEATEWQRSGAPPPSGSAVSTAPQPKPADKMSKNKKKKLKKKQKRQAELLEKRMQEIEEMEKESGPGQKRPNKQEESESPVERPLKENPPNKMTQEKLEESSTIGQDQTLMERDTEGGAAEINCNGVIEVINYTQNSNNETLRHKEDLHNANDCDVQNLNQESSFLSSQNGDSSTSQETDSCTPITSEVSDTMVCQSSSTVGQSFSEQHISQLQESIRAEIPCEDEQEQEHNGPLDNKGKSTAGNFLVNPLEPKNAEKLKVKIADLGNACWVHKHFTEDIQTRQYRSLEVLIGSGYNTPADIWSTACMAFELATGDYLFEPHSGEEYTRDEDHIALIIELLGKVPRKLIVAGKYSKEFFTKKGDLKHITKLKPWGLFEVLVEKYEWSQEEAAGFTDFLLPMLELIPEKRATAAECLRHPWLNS
Sequence of Tyrosine-protein kinase Fes/Fps (Homo sapiens) (P07332 whole entry): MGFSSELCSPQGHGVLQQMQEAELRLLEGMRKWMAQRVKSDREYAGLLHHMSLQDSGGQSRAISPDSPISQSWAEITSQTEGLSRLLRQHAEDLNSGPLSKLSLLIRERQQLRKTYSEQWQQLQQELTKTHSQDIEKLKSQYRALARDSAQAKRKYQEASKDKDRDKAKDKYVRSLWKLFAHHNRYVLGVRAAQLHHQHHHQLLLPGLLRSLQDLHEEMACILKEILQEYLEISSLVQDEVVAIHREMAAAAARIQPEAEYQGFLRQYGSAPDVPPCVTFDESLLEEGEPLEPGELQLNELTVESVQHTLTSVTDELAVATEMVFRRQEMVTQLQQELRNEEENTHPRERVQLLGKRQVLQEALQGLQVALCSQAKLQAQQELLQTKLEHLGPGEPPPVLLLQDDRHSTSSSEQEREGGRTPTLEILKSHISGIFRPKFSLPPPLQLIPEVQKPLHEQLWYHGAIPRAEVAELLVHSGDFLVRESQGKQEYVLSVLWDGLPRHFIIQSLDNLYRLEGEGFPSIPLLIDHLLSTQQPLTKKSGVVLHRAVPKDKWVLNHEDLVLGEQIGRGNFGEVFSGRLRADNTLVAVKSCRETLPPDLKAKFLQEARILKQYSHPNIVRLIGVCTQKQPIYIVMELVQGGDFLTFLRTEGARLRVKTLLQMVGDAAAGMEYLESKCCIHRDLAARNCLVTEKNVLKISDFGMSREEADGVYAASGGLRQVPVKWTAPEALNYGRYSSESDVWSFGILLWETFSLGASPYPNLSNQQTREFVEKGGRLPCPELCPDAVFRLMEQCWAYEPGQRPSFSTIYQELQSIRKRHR
Sequence of Receptor tyrosine-protein kinase erbB-2 (Homo sapiens) (P04626 whole entry): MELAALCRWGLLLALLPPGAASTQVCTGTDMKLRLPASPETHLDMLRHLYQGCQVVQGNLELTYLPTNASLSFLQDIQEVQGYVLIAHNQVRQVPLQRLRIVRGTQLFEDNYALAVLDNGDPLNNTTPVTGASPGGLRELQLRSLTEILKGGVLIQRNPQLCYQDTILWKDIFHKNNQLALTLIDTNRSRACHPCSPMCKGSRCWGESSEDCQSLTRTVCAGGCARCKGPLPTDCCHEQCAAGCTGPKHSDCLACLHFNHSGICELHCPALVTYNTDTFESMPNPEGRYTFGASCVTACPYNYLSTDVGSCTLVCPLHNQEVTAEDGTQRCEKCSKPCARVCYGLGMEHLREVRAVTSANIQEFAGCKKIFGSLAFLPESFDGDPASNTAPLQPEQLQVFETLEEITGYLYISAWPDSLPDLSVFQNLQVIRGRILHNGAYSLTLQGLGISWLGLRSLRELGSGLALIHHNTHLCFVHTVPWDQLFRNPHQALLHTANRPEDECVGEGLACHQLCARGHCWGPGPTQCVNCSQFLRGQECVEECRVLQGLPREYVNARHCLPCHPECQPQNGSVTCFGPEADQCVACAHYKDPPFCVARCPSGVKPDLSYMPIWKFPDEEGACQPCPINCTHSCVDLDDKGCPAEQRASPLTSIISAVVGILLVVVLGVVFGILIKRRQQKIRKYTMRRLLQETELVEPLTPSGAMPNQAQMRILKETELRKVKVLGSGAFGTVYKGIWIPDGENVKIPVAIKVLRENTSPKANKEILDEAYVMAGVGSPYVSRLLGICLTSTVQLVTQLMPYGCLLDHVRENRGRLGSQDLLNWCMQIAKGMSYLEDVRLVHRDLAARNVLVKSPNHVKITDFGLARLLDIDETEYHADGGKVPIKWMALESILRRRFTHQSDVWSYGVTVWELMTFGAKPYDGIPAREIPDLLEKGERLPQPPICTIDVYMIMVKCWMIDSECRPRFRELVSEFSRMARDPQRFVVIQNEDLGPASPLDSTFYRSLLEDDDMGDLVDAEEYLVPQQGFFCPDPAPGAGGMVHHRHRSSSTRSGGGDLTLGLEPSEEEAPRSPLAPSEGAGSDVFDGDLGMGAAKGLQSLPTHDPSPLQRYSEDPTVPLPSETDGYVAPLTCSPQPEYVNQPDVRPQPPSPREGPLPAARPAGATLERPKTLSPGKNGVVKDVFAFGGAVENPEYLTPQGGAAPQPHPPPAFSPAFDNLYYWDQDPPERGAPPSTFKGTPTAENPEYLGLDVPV

Q: How did the Activity [1] turn out when CN(C)C(=O)c1ccc(N2CCCN(c3ccnc4sc(C(N)=O)c(N)c34)CC2)cc1 was run?
A: 100%

Q: What about the Activity [2] of the same compound?
A: 99% and 100%

Q: What about the Activity [3] of the same compound?
A: 100% and 92%

Q: And the Activity [4]?
A: 100%

Q: And the Activity [5]?
A: 59% and 66%

Q: What about the Activity [6] of the same compound?
A: 99% and 100%

Q: What about the Activity [7] of the same compound?
A: 100%

Q: And the Activity [8]?
A: 89% and 96%

Q: And the Activity [9]?
A: 100% and 89%

Q: What about the Activity [10] of the same compound?
A: 100%

Q: What about the Activity [11] of the same compound?
A: 98% and 81%

Q: What about the Activity [12] of the same compound?
A: 100% and 81%

Q: What about the Activity [13] of the same compound?
A: 77% and 81%

Q: What about the Activity [14] of the same compound?
A: 84% and 66%

Q: And the Activity [15]?
A: 98% and 91%

Q: And the Activity [16]?
A: 91% and 98%

Q: And the Activity [17]?
A: 94% and 82%

Q: What about the Activity [18] of the same compound?
A: 96% and 92%

Q: What about the Activity [19] of the same compound?
A: 89% and 87%

Q: What about the Activity [20] of the same compound?
A: 96% and 95%

Q: What about the Activity [21] of the same compound?
A: 100%

Q: And the Activity [22]?
A: 80% and 64%

Q: What about the Activity [23] of the same compound?
A: 100%

Q: What about the Activity [24] of the same compound?
A: 97% and 100%

Q: And the Activity [25]?
A: 100% and 80%

Q: What about the Activity [26] of the same compound?
A: 96% and 100%

Q: And the Activity [27]?
A: 100% and 97%

Q: What about the Activity [28] of the same compound?
A: 90% and 96%

Q: And the Activity [29]?
A: 100% and 80%

Q: What about the Activity [30] of the same compound?
A: 67% and 84%

Q: And the Activity [31]?
A: 97% and 88%
